Experimental data from ChEMBL document CHEMBL5385875, “Tumor killing by a dietary curcumin mono-carbonyl analog that works as a selective ROS generator via TrxR inhibition” (Eur J Med Chem, 2023).
The source made the active and inactive calls. No cut-off for these calls is given here.

Columns and labels:
HT-1080 = assay: Cytotoxicity against human HT-1080 cells assessed as reduction in cell viability incubated for 48 hrs by MTT assay; assay type: functional, cell-based; conditions: HT-1080, 48 h
[1] = Cytotoxicity against human MRC5 cells assessed as reduction in cell viability incubated for 48 hrs by MTT assay; assay type: toxicity, cell-based
NCI-H460 [2] = assay: Cytotoxicity against human NCI-H460 cells assessed as reduction in cell viability incubated for 48 hrs by MTT assay; assay type: functional, cell-based; conditions: NCI-H460, 48 h
HepG2 = assay: Cytotoxicity against human HepG2 cells assessed as reduction in cell viability incubated for 48 hrs by MTT assay; assay type: functional, cell-based; conditions: HepG2, 48 h
A549 = assay: Cytotoxicity against human A549 cells assessed as reduction in cell viability incubated for 48 hrs by MTT assay; assay type: functional, cell-based; conditions: A549, 48 h
[3] = Selectivity index, ratio of IC50 for human MRC5 cells to IC50 for human NCI-H460 cells; assay type: toxicity; conditions: MRC5 cells versus NCI-H460 cells, read-out: Ratio IC50
NCI-H460 [4] = assay: Induction of intracellular ROS accumulation in human NCI-H460 cells at 2 uM measured after 6 hrs by DCFH-DA dye based fluorescence assay; assay type: functional, cell-based
NCI-H460 [5] = assay: Induction of ROS accumulation in human NCI-H460 cells assessed as reduction in GSH levels by measuring yellow green fluorescence incubated for 9 hrs by fluorescence microscope based analysis; assay type: functional, cell-based
[6] = molecular target: Thioredoxin reductase (Homo sapiens) (UniProt Q16881+Q9NNW7+Q86VQ6); assay: Inhibition of TrxR in human NCI-H460 cells at 2 uM measured after 6 hrs by fluorescence microscopy based analysis; assay type: cell-based

Compound | IC50 (HT-1080) | IC50 at 48 h [1] | IC50 (NCI-H460 [2]) | IC50 (HepG2) | IC50 (A549) | selectivity ratio [3] | Activity (NCI-H460 [4]) | Activity (NCI-H460 [5]) | inhibition [6]
COc1ccc(/C=C2\CCC/C(=C\c3ccc(OC)cc3)C2=O)cc1 | > 100 µM | > 100 µM | > 100 µM | > 100 µM | > 100 µM | – | – | – | –
O=C1/C(=C/c2ccccc2)CNC/C1=C\c1ccccc1 | 5.41 µM | 4.85 µM | 2.34 µM | 1.38 µM | 7.36 µM | 2.07 | inactive | inactive | inactive
CN1C/C(=C\c2ccccc2)C(=O)/C(=C/c2ccccc2)C1 | 3.82 µM | 31.3 µM | 26.9 µM | 10.6 µM | 11.3 µM | 1.16 | – | – | –
O=C1/C(=C/c2cccc(C(F)(F)F)c2)CCC/C1=C\c1cccc(C(F)(F)F)c1 | 6.34 µM | 21.9 µM | 6.06 µM | 3.54 µM | 3.96 µM | 3.62 | – | – | –
O=C1/C(=C/c2ccccc2C(F)(F)F)CNC/C1=C\c1ccccc1C(F)(F)F | > 100 µM | > 100 µM | > 100 µM | > 100 µM | > 100 µM | – | inactive | – | –
COc1ccc(/C=C2\CN(C)C/C(=C\c3ccc(OC)cc3)C2=O)cc1 | > 100 µM | > 100 µM | > 100 µM | > 100 µM | > 100 µM | – | – | – | –
O=c1[nH]cc(F)c(=O)[nH]1 [FLUOROURACIL] | – | 246 µM | 24.8 µM | – | – | 9.89 | – | – | –
O=C1/C(=C/c2ccc(C(F)(F)F)cc2)CCC/C1=C\c1ccc(C(F)(F)F)cc1 | 7.2 µM | 47.7 µM | 14.4 µM | > 100 µM | 2.97 µM | 3.32 | – | – | –
COc1cccc(/C=C2\CN(C)C/C(=C\c3cccc(OC)c3)C2=O)c1 | 1.99 µM | 13.4 µM | 5.68 µM | 1.36 µM | 1.18 µM | 2.37 | – | – | –
COc1ccc(/C=C2\CNC/C(=C\c3ccc(OC)cc3)C2=O)cc1 | > 100 µM | > 100 µM | > 100 µM | > 100 µM | > 100 µM | – | inactive | – | –
COc1cc(/C=C/C(=O)CC(=O)/C=C/c2ccc(O)c(OC)c2)ccc1O [CURCUMIN] | 21.9 µM | 51.2 µM | – | 22.8 µM | 44.8 µM | 2.52 | inactive | inactive | inactive
COc1ccccc1/C=C1\CN(C)C/C(=C\c2ccccc2OC)C1=O | 9.62 µM | 17 µM | 8.39 µM | 10.7 µM | 6.81 µM | 2.03 | – | – | –
O=C1/C(=C/c2ccc(C(F)(F)F)cc2)CNC/C1=C\c1ccc(C(F)(F)F)cc1 | 5.48 µM | 8.65 µM | 7.11 µM | 37.1 µM | 2.02 µM | 1.22 | inactive | – | –
O=C1/C(=C/c2ccccc2C(F)(F)F)CCC/C1=C\c1ccccc1C(F)(F)F | > 100 µM | > 100 µM | > 100 µM | > 100 µM | > 100 µM | – | – | – | –
O=C1/C(=C/c2ccccc2)CCC/C1=C\c1ccccc1 [2,6-DIBENZYLIDENECYCLOHEXANONE] | 32.6 µM | > 100 µM | 50.5 µM | 28.5 µM | 26.3 µM | – | – | – | –
CC[C@@]1(O)C(=O)OCc2c1cc1n(c2=O)Cc2cc3ccccc3nc2-1 [CAMPTOTHECIN] | – | 9.02 µM | 0.79 µM | – | – | 11.4 | – | – | –
CN1C/C(=C\c2ccccc2C(F)(F)F)C(=O)/C(=C/c2ccccc2C(F)(F)F)C1 | 49.5 µM | > 100 µM | > 100 µM | > 100 µM | > 100 µM | – | – | – | –
CN1C/C(=C\c2ccc(C(F)(F)F)cc2)C(=O)/C(=C/c2ccc(C(F)(F)F)cc2)C1 | 2.03 µM | 4.76 µM | 2.2 µM | 1.01 µM | 1.58 µM | 2.16 | – | – | –
COc1cccc(/C=C2\CCC/C(=C\c3cccc(OC)c3)C2=O)c1 | 22.2 µM | 46 µM | 16.4 µM | 14 µM | 11.6 µM | 2.81 | – | – | –
COc1ccccc1/C=C1\CNC/C(=C\c2ccccc2OC)C1=O | 35.9 µM | 3.67 µM | 2.88 µM | 1.93 µM | 3.32 µM | 1.27 | inactive | – | –
COc1cccc(/C=C2\CNC/C(=C\c3cccc(OC)c3)C2=O)c1 | 20 µM | 9.11 µM | 7.93 µM | 5.19 µM | 14.3 µM | 1.23 | inactive | – | –
CN1C/C(=C\c2cccc(C(F)(F)F)c2)C(=O)/C(=C/c2cccc(C(F)(F)F)c2)C1 | 3.86 µM | 9.25 µM | 2.94 µM | 1.12 µM | 1.08 µM | 3.15 | – | – | –
COc1ccccc1/C=C1\CCC/C(=C\c2ccccc2OC)C1=O | > 100 µM | > 100 µM | 79.8 µM | 60.1 µM | 66.8 µM | – | – | – | –
